The source of these data is patent publication US20260327204A1, “DEGRADERS OF CYCLIN-DEPENDENT KINASE 12/13, COMPOSITIONS, AND USES THEREOF” (ZHEJIANG UNIVERSITY, priority 2023, published 2026).

SMILES strings stand for the structures. Read-outs that look alike come from different tables or passages of the source. A value given as a limit tells only on which side of the number the result lay.

Test [1] has as its target CDK13 (Homo sapiens, UniProt Q14004). Put plainly: Western blot degradation of CDK13 (Example 3). The class given is cell-based. Also noted: degradation of CDK12/13 protein in leukemia cells KASUMI-1, MV4-11, and Jurkat; endogenous in cells.
Test [2] deals with CDK12 (Homo sapiens, UniProt Q9NYV4). Description: Western blot degradation of CDK12 (Example 3). The class given is cell-based. Further details: degradation of CDK12/13 protein in leukemia cells KASUMI-1, MV4-11, and Jurkat; endogenous in cells. Background: In western blotting, separated proteins are transferred to a membrane and probed.
Sequence of CDK12 (Q9NYV4 whole entry): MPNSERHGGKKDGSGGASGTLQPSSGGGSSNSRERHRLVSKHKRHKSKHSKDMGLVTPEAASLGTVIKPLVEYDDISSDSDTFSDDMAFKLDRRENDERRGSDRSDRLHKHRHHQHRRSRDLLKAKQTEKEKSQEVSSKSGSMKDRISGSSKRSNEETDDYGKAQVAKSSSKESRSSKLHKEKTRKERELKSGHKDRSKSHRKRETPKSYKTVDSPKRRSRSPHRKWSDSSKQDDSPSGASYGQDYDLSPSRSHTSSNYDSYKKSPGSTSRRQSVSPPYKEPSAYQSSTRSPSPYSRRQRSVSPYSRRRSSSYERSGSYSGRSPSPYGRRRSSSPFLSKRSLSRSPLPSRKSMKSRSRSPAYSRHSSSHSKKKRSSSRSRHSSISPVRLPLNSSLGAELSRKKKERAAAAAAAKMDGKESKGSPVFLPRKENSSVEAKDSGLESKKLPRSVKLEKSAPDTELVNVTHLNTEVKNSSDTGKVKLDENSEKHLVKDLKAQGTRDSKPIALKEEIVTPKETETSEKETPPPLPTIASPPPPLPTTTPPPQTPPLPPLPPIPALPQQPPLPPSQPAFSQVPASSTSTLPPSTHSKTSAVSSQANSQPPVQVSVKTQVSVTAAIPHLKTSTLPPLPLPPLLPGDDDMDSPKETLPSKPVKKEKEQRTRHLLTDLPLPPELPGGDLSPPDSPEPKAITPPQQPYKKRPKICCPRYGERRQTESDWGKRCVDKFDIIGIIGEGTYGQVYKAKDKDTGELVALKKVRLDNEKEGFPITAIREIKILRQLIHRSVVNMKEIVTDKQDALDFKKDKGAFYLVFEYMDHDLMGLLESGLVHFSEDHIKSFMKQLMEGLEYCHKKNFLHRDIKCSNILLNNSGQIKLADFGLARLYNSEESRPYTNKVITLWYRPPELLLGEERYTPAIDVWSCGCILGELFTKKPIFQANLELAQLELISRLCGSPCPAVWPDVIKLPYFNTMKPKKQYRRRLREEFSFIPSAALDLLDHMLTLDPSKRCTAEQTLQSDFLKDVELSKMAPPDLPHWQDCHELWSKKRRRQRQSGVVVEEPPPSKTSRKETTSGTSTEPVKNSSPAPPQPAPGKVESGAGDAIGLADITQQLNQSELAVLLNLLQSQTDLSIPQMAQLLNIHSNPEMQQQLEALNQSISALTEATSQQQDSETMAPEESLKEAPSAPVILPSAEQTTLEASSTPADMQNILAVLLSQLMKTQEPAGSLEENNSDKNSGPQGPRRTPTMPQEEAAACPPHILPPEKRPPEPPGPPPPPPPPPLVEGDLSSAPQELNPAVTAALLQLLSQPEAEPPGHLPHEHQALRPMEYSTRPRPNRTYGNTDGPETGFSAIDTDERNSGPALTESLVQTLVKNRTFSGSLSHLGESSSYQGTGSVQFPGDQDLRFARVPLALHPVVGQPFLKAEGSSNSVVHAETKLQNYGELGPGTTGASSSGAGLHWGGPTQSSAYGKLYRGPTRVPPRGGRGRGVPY
Sequence of CDK12 (O75909 whole entry partner): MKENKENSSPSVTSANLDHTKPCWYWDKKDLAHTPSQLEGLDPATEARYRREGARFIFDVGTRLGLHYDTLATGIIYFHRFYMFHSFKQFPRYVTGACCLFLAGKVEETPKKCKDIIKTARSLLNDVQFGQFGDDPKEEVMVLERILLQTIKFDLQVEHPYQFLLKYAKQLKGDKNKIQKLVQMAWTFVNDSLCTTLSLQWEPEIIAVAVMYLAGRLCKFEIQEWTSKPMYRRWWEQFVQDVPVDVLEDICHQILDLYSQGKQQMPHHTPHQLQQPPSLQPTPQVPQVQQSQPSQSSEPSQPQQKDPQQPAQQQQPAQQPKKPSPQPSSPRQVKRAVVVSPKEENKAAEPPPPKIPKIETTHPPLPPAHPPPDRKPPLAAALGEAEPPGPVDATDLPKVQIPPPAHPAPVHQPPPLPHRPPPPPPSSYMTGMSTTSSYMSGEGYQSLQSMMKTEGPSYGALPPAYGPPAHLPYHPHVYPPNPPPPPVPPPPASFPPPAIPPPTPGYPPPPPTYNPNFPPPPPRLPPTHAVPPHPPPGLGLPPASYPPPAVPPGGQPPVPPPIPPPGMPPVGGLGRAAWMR
[3] abbreviates: DC50 classes; cell line not given; read-out: CDK13 degradation Activity.
Where [4] appears, read: DC50 classes; cell line not given; read-out: CDK12 degradation Activity.

Sequence of CDK13 (Q14004 whole entry): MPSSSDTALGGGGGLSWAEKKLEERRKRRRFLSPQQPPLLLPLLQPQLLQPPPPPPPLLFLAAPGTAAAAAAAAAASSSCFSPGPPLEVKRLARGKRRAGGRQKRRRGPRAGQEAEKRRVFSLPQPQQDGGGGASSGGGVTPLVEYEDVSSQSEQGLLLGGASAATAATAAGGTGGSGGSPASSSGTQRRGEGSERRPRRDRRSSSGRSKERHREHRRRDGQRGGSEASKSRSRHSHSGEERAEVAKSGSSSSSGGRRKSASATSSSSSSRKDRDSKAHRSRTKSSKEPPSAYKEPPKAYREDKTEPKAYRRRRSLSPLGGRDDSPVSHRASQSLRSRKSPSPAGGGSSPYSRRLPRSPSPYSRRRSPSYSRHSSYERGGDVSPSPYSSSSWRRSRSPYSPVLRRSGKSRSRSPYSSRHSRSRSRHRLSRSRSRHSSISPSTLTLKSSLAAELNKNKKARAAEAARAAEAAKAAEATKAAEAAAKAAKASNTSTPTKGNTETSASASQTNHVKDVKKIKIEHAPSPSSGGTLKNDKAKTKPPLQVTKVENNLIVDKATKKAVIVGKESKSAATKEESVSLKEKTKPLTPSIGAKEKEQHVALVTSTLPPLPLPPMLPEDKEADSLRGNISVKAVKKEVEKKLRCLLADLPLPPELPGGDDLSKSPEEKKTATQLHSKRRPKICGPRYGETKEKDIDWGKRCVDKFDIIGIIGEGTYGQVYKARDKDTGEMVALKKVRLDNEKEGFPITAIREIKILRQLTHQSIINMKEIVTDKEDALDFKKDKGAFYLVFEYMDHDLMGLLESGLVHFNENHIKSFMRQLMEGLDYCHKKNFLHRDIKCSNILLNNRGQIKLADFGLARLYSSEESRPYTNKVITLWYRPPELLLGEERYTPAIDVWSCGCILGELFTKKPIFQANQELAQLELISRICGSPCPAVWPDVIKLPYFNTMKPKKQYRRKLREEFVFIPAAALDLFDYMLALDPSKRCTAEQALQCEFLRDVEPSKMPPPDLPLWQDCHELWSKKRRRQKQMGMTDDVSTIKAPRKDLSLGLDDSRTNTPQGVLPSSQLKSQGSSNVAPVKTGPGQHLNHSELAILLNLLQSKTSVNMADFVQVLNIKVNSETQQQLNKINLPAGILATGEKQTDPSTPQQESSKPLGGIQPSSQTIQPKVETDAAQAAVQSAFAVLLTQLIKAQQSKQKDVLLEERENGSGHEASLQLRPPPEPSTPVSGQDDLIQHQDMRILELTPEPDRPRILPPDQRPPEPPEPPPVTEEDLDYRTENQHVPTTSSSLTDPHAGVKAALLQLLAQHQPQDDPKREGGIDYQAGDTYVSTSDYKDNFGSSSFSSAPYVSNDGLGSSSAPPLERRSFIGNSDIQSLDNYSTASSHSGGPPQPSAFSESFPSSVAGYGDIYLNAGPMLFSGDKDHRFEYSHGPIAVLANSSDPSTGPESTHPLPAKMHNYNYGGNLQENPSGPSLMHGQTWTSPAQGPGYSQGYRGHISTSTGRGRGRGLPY
Sequence of CDK13 (O75909 whole entry partner): as the sequence (O75909 whole entry partner) above

As to `CC(=O)N(c1ccc(-c2cnc(N3CCN(c4ccc5c(c4)C(=O)N(C4CCC(=O)NC4=O)C5=O)CC3)nc2)cc1)[C@H]1CC[C@H](Nc2ncc3ccccc3n2)CC1` (some centres unmarked) [Formula 107], the DC50 in test [1] (setting [3]) and in test [2] (setting [4]) was less than 0.1 µM throughout.
Regarding `CC(=O)N(c1ccc(N2CCN(CC3CCN(c4ccc5c(c4)C(=O)N(C4CCC(=O)NC4=O)C5=O)CC3)CC2)cc1)[C@H]1CC[C@H](Nc2ncc3ccccc3n2)CC1` (some centres unmarked) [Formula 106], the DC50 in test [1] (setting [3]) and in test [2] (setting [4]) was 0.5 to 1 µM in each case.
For the molecule `CC(=O)N(c1ccc(N2CCN(CC3CCN(c4ccc5c(c4)C(=O)N(C4CCC(=O)NC4=O)C5=O)C3)CC2)cc1)[C@H]1CC[C@H](Nc2ncc3ccccc3n2)CC1` (stereo partly drawn) [Formula 126, N-(4-(4-((1-(2-(2,6-dioxopiperidin-3-yl)-1,3-dioxoisoindolin-5-yl)pyrrolidin-3-yl)methyl)piperazin-1-yl)phenyl)-N-((1R,4R)-4-(quinazolin-2-ylamino)cyclohexyl)acetamide], the figures for the DC50 in test [1] (setting [3]) and in test [2] (setting [4]) were 3 to 10 µM and 1 to 3 µM, respectively.
As for `CC(=O)N(c1ccc(-c2cnn(CC3CN(CC(=O)N[C@H](C(=O)N4C[C@H](O)C[C@H]4C(=O)N[C@@H](C)c4ccc(-c5scnc5C)cc4)C(C)(C)C)C3)c2)cc1)[C@H]1CC[C@H](Nc2ncc3ccccc3n2)CC1` (stereo in doubt) [Formula 140, (2S,4R)-1-((R)-3,3-dimethyl-2-(2-(3-((4-(4-(N-((1R,4R)-4-(quinazolin-2-ylamino)cyclohexyl)acetamido)phenyl)-1H-pyrazol-1-yl)methyl)azetidin-1-yl)acetamido)butanoyl)-4-hydroxy-N—((R)-1-(4-(4-methylthiazol-5-yl)phenyl)ethyl)pyrrolidine-2-carboxamide], the DC50 in test [1] (setting [3]) lay within 0.5 to 1 µM; in test [2] (setting [4]) it was 1 to 3 µM.
For `CC(=O)N(c1ccc(-c2ccc3c(c2)CCN(CC(=O)N[C@H](C(=O)N2C[C@H](O)C[C@H]2C(=O)N[C@@H](C)c2ccc(-c4scnc4C)cc2)C(C)(C)C)C3)cc1)[C@H]1CC[C@H](Nc2ncc3ccccc3n2)CC1` [Formula 149, (2S,4R)-1-((S)-3,3-dimethyl-2-(2-(6-(4-(N-((1R,4R)-4-(quinazolin-2-ylamino)cyclohexyl)acetamido)phenyl)-3,4-dihydroisoquinolin-2(1H)-yl)acetamido)butanoyl)-4-hydroxy-N—((S)-1-(4-(4-methylthiazol-5-yl)phenyl)ethyl)pyrrolidine-2-carboxamide], the DC50 fell in the range of 1 to 3 µM in test [1] (setting [3]) and 0.5 to 1 µM in test [2] (setting [4]).
For the molecule `CC(=O)N(c1ccc(N2CCC3(CC2)CCN(c2ccc4c(c2)C(=O)N(C2CCC(=O)NC2=O)C4=O)C3)cc1)[C@H]1CC[C@H](Nc2ncc3ccccc3n2)CC1` (stereo partly drawn) [Formula 119, N-(4-(2-(2-(2,6-dioxopiperidin-3-yl)-1,3-dioxoisoindolin-5-yl)-2,8-diazaspiro[4.5]decan-8-yl)phenyl)-N-((1R,4R)-4-(quinazolin-2-ylamino)cyclohexyl)acetamide], in test [2] (setting [4]), the DC50 fell in the range of 1 to 3 µM.
Turning to `CC(=O)N(c1ccc(-c2ccc(N3CCN(Cc4cnn([C@H](C(=O)N5C[C@H](O)C[C@H]5C(=O)N[C@@H](C)c5ccc(-c6scnc6C)cc5)C(C)C)c4)CC3)nc2)cc1)C1CCC(Nc2ncc3ccccc3n2)CC1` (stereo partly drawn) [Formula 151, (2S,4R)-4-hydroxy-1-((S)-3-methyl-2-(4-((4-(5-(4-(N-((1R,4R)-4-(quinazolin-2-ylamino)cyclohexyl)acetamido)phenyl)pyridin-2-yl)piperazin-1-yl)methyl)-1H-pyrazol-1-yl)butanoyl)-N—((S)-1-(4-(4-methylthiazol-5-yl)phenyl)ethyl)pyrrolidine-2-carboxamide], the DC50 in test [1] (read-out: CDK13 degradation Activity; DC50 classes; cell line not given) was in the range of 0.1 to 0.5 µM; in test [2] (read-out: CDK12 degradation Activity; DC50 classes; cell line not given), 0.5 to 1 µM.
With `CC(=O)N(c1ccc(-c2cncc(C(=O)N[C@H]3CCC(=O)NC3=O)c2)cc1)[C@H]1CC[C@H](Nc2ncc3ccccc3n2)CC1` [Formula 128, N—((S)-2,6-dioxopiperidin-3-yl)-5-(4-(N-((1R,4S)-4-(quinazolin-2-ylamino)cyclohexyl)acetamido)phenyl)nicotinamide], the DC50 in test [1] (setting [3]) and in test [2] (setting [4]) was 3 to 10 µM throughout.
As to `CC(=O)N(c1ccc(-c2cnc(OCCOCC(=O)N[C@H](C(=O)N3C[C@H](O)C[C@H]3C(=O)N[C@@H](C)c3ccc(-c4scnc4C)cc3)C(C)(C)C)nc2)cc1)[C@H]1CC[C@H](Nc2ncc3ccccc3n2)CC1` [Formula 132, (2S,4R)-1-((S)-3,3-dimethyl-2-(2-(2-((5-(4-(N-((1R,4R)-4-(quinazolin-2-ylamino)cyclohexyl)acetamido)phenyl)pyrimidin-2-yl)oxy)ethoxy)acetamido)butanoyl)-4-hydroxy-N—((S)-1-(4-(4-methylthiazol-5-yl)phenyl)ethyl)pyrrolidine-2-carboxamide], the DC50 in test [1] (setting [3]) and in test [2] (setting [4]) was 0.5 to 1 µM throughout.
On to `CC(=O)N(c1ccc(-c2ccc(N3CCN(c4cc(C(C(=O)N5C[C@H](O)C[C@H]5C(=O)N[C@@H](C)c5ccc(-c6scnc6C)cc5)C(C)C)on4)CC3)nc2)cc1)[C@H]1CC[C@@H](Nc2ncc3ccccc3n2)CC1` (single isomer, unassigned) [Formula 155], for which the DC50 in test [1] (setting [3]) and in test [2] (setting [4]) was less than 0.1 µM throughout.
Regarding `CC(=O)N(c1ccc(-c2cnc(N3C[C@@H]4C[C@H]3CN4CC(=O)N[C@H](C(=O)N3C[C@H](O)C[C@H]3C(=O)N[C@@H](C)c3ccc(-c4scnc4C)cc3)C(C)(C)C)nc2)cc1)[C@H]1CC[C@H](Nc2ncc3ccccc3n2)CC1` [Formula 142, (2S,4R)-1-((S)-3,3-dimethyl-2-(2-((1S,4S)-5-(5-(4-(N-((1R,4S)-4-(quinazolin-2-ylamino)cyclohexyl)acetamido)phenyl)pyrimidin-2-yl)-2,5-diazabicyclo[2.2.1]heptan-2-yl)acetamido)butanoyl)-4-hydroxy-N—((S)-1-(4-(4-methylthiazol-5-yl)phenyl)ethyl)pyrrolidine-2-carboxamide], the DC50 in test [1] (setting [3]) and in test [2] (setting [4]) was less than 0.1 µM in each case.
In the case of `CC(=O)N(c1ccc(-c2cnc(N3CCC(C(=O)N[C@H](C(=O)N4C[C@H](O)C[C@H]4C(=O)N[C@@H](C)c4ccc(-c5scnc5C)cc4)C(C)(C)C)CC3)nc2)cc1)[C@H]1CC[C@H](Nc2ncc3ccccc3n2)CC1` [Formula 138, N—((S)-1-((2S,4R)-4-hydroxy-2-(((S)-1-(4-(4-methylthiazol-5-yl)phenyl)ethyl)carbamoyl)pyrrolidin-1-yl)-3,3-dimethyl-1-oxobutan-2-yl)-1-(5-(4-(N-((1R,4R)-4-(quinazolin-2-ylamino)cyclohexyl)acetamido)phenyl)pyrimidin-2-yl)piperidine-4-carboxamide], in test [1] (DC50 classes; cell line not given), the “CDK13 degradation Activity” value is “−”. For the same molecule, the DC50 in test [2] (setting [4]) lay within 1 to 3 µM.
For `CC(=O)N(c1ccc(-c2cnn(C3CN(c4ccc5c(c4)C(=O)N(C4CCC(=O)NC4=O)C5=O)C3)c2)cc1)[C@H]1CC[C@H](Nc2ncc3ccccc3n2)CC1` (stereo partly drawn) [Formula 113, N-(4-(1-(1-(2-(2,6-dioxopiperidin-3-yl)-1,3-dioxoisoindolin-5-yl)azetidin-3-yl)-1H-pyrazol-4-yl)phenyl)-N-((1R,4R)-4-(quinazolin-2-ylamino)cyclohexyl)acetamide], the DC50 in test [1] (setting [3]) and in test [2] (setting [4]) was 3 to 10 µM each time.
As for `CC(=O)N(c1ccc(-c2cnc(N3CCN(c4ccc5c(c4)C(=O)N(C4CCC(=O)NC4=O)C5=O)CC3)nc2)cc1)[C@H]1CC[C@H](Nc2ncc3ccccc3n2)CC1` (some centres unmarked) [Formula 158], the DC50 in test [1] (setting [3]) and in test [2] (setting [4]) was less than 0.1 µM throughout.
With `CC(=O)N(c1ccc(-c2ccn(CC3CCN(c4ccc5c(c4)C(=O)N(C4CCC(=O)NC4=O)C5=O)CC3)c(=O)c2)cc1)[C@H]1CC[C@H](Nc2ncc3ccccc3n2)CC1` (stereo partly drawn) [Formula 111, N-(4-(1-((1-(2-(2,6-dioxopiperidin-3-yl)-1,3-dioxoisoindolin-5-yl)piperidin-4-yl)methyl)-2-oxo-1,2-dihydropyridin-4-yl)phenyl)-N-((1R,4R)-4-(quinazolin-2-ylamino)cyclohexyl)acetamide], the DC50 in test [1] (setting [3]) and in test [2] (setting [4]) was 1 to 3 µM each time.
Regarding `CC(=O)N(c1ccc(N2CCN(C(=O)CNc3ccc4c(c3)C(=O)N(C3CCC(=O)NC3=O)C4=O)CC2)cc1)[C@H]1CC[C@H](Nc2ncc3ccccc3n2)CC1` (stereo partly drawn) [Formula 101, N-(4-(4-((2-(2,6-dioxopiperidin-3-yl)-1,3-dioxoisoindolin-5-yl)aminoacetyl)piperazin-1-yl)phenyl)-N-((1R,4R)-4-(quinazolin-2-ylamino)cyclohexyl)acetamide], the DC50 in test [1] (setting [3]) and in test [2] (setting [4]) was 1 to 3 µM each time.
`CC(=O)N(c1ccc(-c2ccc(OC3CCN(CC(=O)N[C@H](C(=O)N4C[C@H](O)C[C@H]4C(=O)N[C@@H](C)c4ccc(-c5scnc5C)cc4)C(C)(C)C)CC3)nc2)cc1)[C@H]1CC[C@H](Nc2ncc3ccccc3n2)CC1` [Formula 135, (2S,4R)-1-((S)-3,3-dimethyl-2-(2-(4-((5-(4-(N-((1R,4R)-4-(quinazolin-2-ylamino)cyclohexyl)acetamido)phenyl)pyridin-2-yl)oxy)piperidin-1-yl)acetamido)butanoyl)-4-hydroxy-N—((S)-1-(4-(4-methylthiazol-5-yl)phenyl)ethyl)pyrrolidine-2-carboxamide]: the values for the DC50 in test [1] (setting [3]) and in test [2] (setting [4]) were 1 to 3 µM and 0.5 to 1 µM, respectively.
As to `CC(=O)N(c1ccc(-c2ccc(N3CCC(C(=O)N[C@H](C(=O)N4C[C@H](O)C[C@H]4C(=O)N[C@@H](C)c4ccc(-c5scnc5C)cc4)C(C)(C)C)CC3)nc2)cc1)[C@H]1CC[C@H](Nc2ncc3ccccc3n2)CC1` [Formula 137, N—((S)-1-((2S,4R)-4-hydroxy-2-(((S)-1-(4-(4-methylthiazol-5-yl)phenyl)ethyl)carbamoyl)pyrrolidin-1-yl)-3,3-dimethyl-1-oxobutan-2-yl)-1-(5-(4-(N-((1R,4R)-4-(quinazolin-2-ylamino)cyclohexyl)acetamido)phenyl)pyridin-2-yl)piperidine-4-carboxamide], the DC50 in test [1] (setting [3]) and in test [2] (setting [4]) was 3 to 10 µM each time.
